Data published in patent US9458173B2, “Amides of 2-amino-4-arylthiazole compounds and their salts” (GLENMARK PHARMACEUTICALS S.A., priority 2012, dated 2016).
Converted amounts (≈) assume the structure as drawn. Where two headings read alike, the source gives them in different places.

Columns and labels:
Type in all cases: physicochemical
[1] = Hygroscopicity study, moisture content by Karl Fischer method; conditions: for moisture content, initial value: before exposure to humidity; for moisture content increase: 25° C., 48 hrs
Procedure: Hygroscopicity study was performed under the following conditions: The material was exposed to relative humidity (for example 60%, 80%, 90%) at 25° C. condition. The material was thinly spread in dried and pre-weighed Petri plate. The plate was exposed to the relative humidity conditions at 25° C. The Petri plate was withdrawn at regular intervals and weighed. Withdrawn samples were tested for description and moisture content by Karl Fischer method.

[2] = Solubility studies, shake flask method with HPLC quantification; conditions: 37° C., 200 rpm, about 15 minutes; for solubility: thermodynamic from solid, read-out: Solubility (Conc.)
Procedure: • Shake flask method was used to determine the solubility of compound in various bio-relevant media of different pH and quantification is done using HPLC method. II. Experimental:
Following bio-relevant media and water were selected to study the solubility behaviour. • i. FaSSIF (Fasted state simulated intestinal fluid) of pH 6.5 • ii. FeSSIF (Fed state simulated intestinal fluid) of pH 5.0 • iii. Water.
Procedure: Test substance (1 mg) was taken in a test tube and medium [FaSSIF (pH 6.5) or FeSSIF (pH 5.0) or water] was added in the increment of 1 ml with shaking. After completion of addition of 10 ml of media, test tubes containing sample solution were put on a mechanical shaker set at 37° C. and 200 rpm for shaking up to about 15 minutes. After shaking, the content of each flask, it was filtered through […] filter. The filtered solution was analysed using HPLC for quantification. A sample solution of 1 mg in 10 ml of DMSO was used as reference standard for quantifying dissolved test substance in each media. The solubility in each media is expressed as μg/ml (Table-10).

[3] = Stability studies of salts under storage, degradation products by HPLC
Excerpt: The salts of compound of formula II were stored under conditions as shown in Table 11 and a total amount of degradation products (related substances) and single maximum impurity formed during storage was estimated according to following protocol:
Apparatus: A High Performance Liquid Chromatograph equipped with quaternary gradient pumps, variable wavelength UV detector attached with data recorder and Integrator software or equivalent.
Column: Phenomenex Prodigy, 250 mm×4.6 mm, 5.0 or equivalent
Mobile phase: A: Buffer B: Acetonitrile (for sodium salt), acetonitrile:methanol (6:4) for potassium salt
Buffer: 0.1% Formic acid in water
Detection wavelength: UV 265 nm
Column temperature: 40° C.
10 mg of compound was weighed and transferred it into a 20 mL volumetric flask. Dimethylsulfoxide was added and it was sonicated to dissolve. The diluent was added to make up the solution to the mark of the flask.
The equal volumes of blank (diluent) and test solution were separately injected into the liquid chromatograph. The responses were recorded eliminating the peaks due to blank and the chromatographic purity by area was calculated by normalization method.
The salts of the compound of formula II were stored under conditions as shown in below table and a total amount of degradation products (related substances) as well as single maximum impurity formed during storage was estimated by HPLC. The material was packed in inner clear polythene bag under nitrogen lined with black polythene bag, covered with triple laminated aluminium bag placed in HDPE drum and subjected to the conditions mentioned in the table 11.

[4] = Dissolution studies in suspension form; conditions: suspension: 10 mg active, Kollidon VA 64 40 mg, SLS 20 mg, purified water; batches 1A, 2A, 3A
Procedure: Suspension of compound of formula (II) and its salts with same composition was prepared using conventional homogenization technique. The % drug release was determined by comparing with 10 mg equivalent suspension (after sonication).

[5] = storage condition 1: 25 ± 2° C., 60 ± 5% RH, 0 months
[6] = storage condition 1: 25 ± 2° C., 60 ± 5% RH, 1 month
[7] = storage condition 1: 25 ± 2° C., 60 ± 5% RH, 2 months
[8] = storage condition 1: 25 ± 2° C., 60 ± 5% RH, 3 months
[9] = storage condition 1: 25 ± 2° C., 60 ± 5% RH, 6 months
[10] = storage condition 1: 25 ± 2° C., 60 ± 5% RH, 9 months
[11] = storage condition 2: 30 ± 2° C., 65 ± 5% RH, 0 months
[12] = storage condition 2: 30 ± 2° C., 65 ± 5% RH, 1 month
[13] = storage condition 2: 30 ± 2° C., 65 ± 5% RH, 2 months
[14] = storage condition 2: 30 ± 2° C., 65 ± 5% RH, 3 months
[15] = storage condition 2: 30 ± 2° C., 65 ± 5% RH, 6 months
[16] = storage condition 3: 40 ± 2° C., 75 ± 5% RH, 0 months
[17] = storage condition 3: 40 ± 2° C., 75 ± 5% RH, 1 month
[18] = storage condition 3: 40 ± 2° C., 75 ± 5% RH, 2 months
[19] = storage condition 3: 40 ± 2° C., 75 ± 5% RH, 3 months
[20] = storage condition 3: 40 ± 2° C., 75 ± 5% RH, 6 months

| Structure (SMILES) | Solubility (Conc.) ([2]; FaSSIF (pH 6.5)) [µg/mL] | Solubility (Conc.) ([2]; FeSSIF (pH 5.0)) [µg/mL] | Solubility (Conc.) ([2]; Water) [µg/mL] | Related substances [3, 5] [%] | single max. impurity [3, 5] [%] | Related substances [3, 6] [%] | single max. impurity [3, 6] [%] | Related substances [3, 7] [%] | single max. impurity [3, 7] [%] | Related substances [3, 8] [%] | single max. impurity [3, 8] [%] | Related substances [3, 9] [%] | single max. impurity [3, 9] [%] | Related substances [3, 10] [%] | single max. impurity [3, 10] [%] | Related substances [3, 11] [%] | single max. impurity [3, 11] [%] | Related substances [3, 15] [%] | single max. impurity [3, 15] [%] | % drug release after 15 minutes [4] [%] | further results |
| --- | --- | --- | --- | --- | --- | --- | --- | --- | --- | --- | --- | --- | --- | --- | --- | --- | --- | --- | --- | --- | --- |
| Cn1c(=O)c2c(CC(=O)Nc3nc(-c4ccc(F)c(C(F)(F)F)c4F)cs3)csc2n(C)c1=O.[K] [Potassium salt of N-{4-[2,4-difluoro-3-(trifluoromethyl)phenyl]-1,3-thiazol-2-yl}-2-(1,3-dimethyl-2,4-dioxo-1,2,3,4-tetrahydrothieno[2,3-d]pyrimidin-5-yl)acetamide in crystalline form] |  |  |  |  |  |  |  |  |  |  |  |  |  |  |  |  |  |  |  |  | moisture content after gradual increase ([1]; 48 hrs at 25° C./60% RH): about 3.5%; moisture content after gradual increase ([1]; 48 hrs at 25° C./80% RH): about 6.6%; moisture content after gradual increase ([1]; 48 hrs at 25° C./90% RH): about 16.0%; moisture content, initial value [1]: about 0.80% |
| Cn1c(=O)c2c(CC(=O)[N-]c3nc(-c4ccc(F)c(C(F)(F)F)c4F)cs3)csc2n(C)c1=O.[Na+] [Sodium salt of compound (II)] | 1.07 | 0.24 | 0.13 | 0.22 | 0.05 | 0.28 | 0.06 | 0.36 | 0.10 | 0.38 | 0.11 | 0.51 | 0.23 | 0.75 | 0.39 | 0.22 | 0.05 | 0.71 | 0.35 | 1.2 | Related substances [3, 12]: 0.30%; single max. impurity [3, 12]: 0.05%; Related substances [3, 13]: 0.40%; single max. impurity [3, 13]: 0.14%; Related substances [3, 14]: 0.47%; single max. impurity [3, 14]: 0.18%; Related substances [3, 16]: 0.22%; single max. impurity [3, 16]: 0.05%; Related substances [3, 17]: 0.54%; single max. impurity [3, 17]: 0.22%; Related substances [3, 18]: 0.70%; single max. impurity [3, 18]: 0.36%; Related substances [3, 19]: 0.77%; single max. impurity [3, 19]: 0.39%; Related substances [3, 20]: 1.0%; single max. impurity [3, 20]: 0.58% |
| Cn1c(=O)c2c(CC(=O)Nc3nc(-c4ccc(F)c(C(F)(F)F)c4F)cs3)csc2n(C)c1=O [Compound (II), N-{4-[2,4-difluoro-3-(trifluoromethyl)phenyl]-1,3-thiazol-2-yl}-2-(1,3-dimethyl-2,4-dioxo-1,2,3,4-tetrahydrothieno[2,3-d]pyrimidin-5-yl)acetamide] |  |  |  |  |  |  |  |  |  |  |  |  |  |  |  |  |  |  |  | 0.40 | solubility ([2]; FaSSIF (fasted state simulated intestinal fluid), FaSSIF (pH 6.5)): 0.16 µg/mL (≈ 0.31 µM); solubility ([2]; FeSSIF (fed state simulated intestinal fluid), FeSSIF (pH 5.0)): 0.06 µg/mL (≈ 0.116 µM); solubility ([2]; Water): 0.1 µg/mL (≈ 0.194 µM) |
| Cn1c(=O)c2c(CC(=O)Nc3nc(-c4ccc(F)c(C(F)(F)F)c4F)cs3)csc2n(C)c1=O.[K] [Potassium salt of compound (II), potassium salt of N-{4-[2,4-difluoro-3-(trifluoromethyl)phenyl]-1,3-thiazol-2-yl}-2-(1,3-dimethyl-2,4-dioxo-1,2,3,4-tetrahydrothieno[2,3-d]pyrimidin-5-yl)acetamide] | 5.91 | 5.53 | 0.49 | 0.44 | 0.26 | 0.45 | 0.27 | 0.31 | 0.19 | 0.43 | 0.26 | 0.35 | 0.21 | 0.35 | 0.21 | 0.44 | 0.26 | 0.51 | 0.31 | 6.3 | Related substances [3, 16]: 0.44%; single max. impurity [3, 16]: 0.26%; Related substances [3, 17]: 0.44%; single max. impurity [3, 17]: 0.27%; Related substances [3, 18]: 0.32%; single max. impurity [3, 18]: 0.20%; Related substances [3, 19]: 0.46%; single max. impurity [3, 19]: 0.28%; Related substances [3, 20]: 0.52%; single max. impurity [3, 20]: 0.32%; moisture content after gradual increase ([1]; 48 hrs at 25° C./60% RH, listed as potassium salt of compound of formula (II)): 3.5%; moisture content after gradual increase ([1]; 48 hrs at 25° C./80% RH, listed as potassium salt of compound of formula (II)): 6.6%; moisture content after gradual increase ([1]; 48 hrs at 25° C./90% RH, listed as potassium salt of compound of formula (II)): 16.0%; moisture content, initial value ([1]; listed as potassium salt of compound of formula (II)): 0.80%; moisture content increase ([1]; relative humidity of 60%): ≤ 2.7%; moisture content increase ([1]; relative humidity of 80%): ≤ 5.8%; moisture content increase ([1]; relative humidity of 90%): ≤ 15.2% |
